Common to all, as to experiment: DTP human tumour cell line panel, 48 h
For assay [1], the system named is 786-0 renal.
The test system of assay [2] is A498 renal.
Assay [3] relates to BT-549 breast.
Assay [4] concerns CAKI-1 renal.
For assay [5], the system named is COLO 205 colon.
The test system of assay [6] is HOP-92 NSCLC.
Assay [7] relates to HS 578T breast.
Assay [8] has as its system M14 melanoma.
For assay [9], the system named is MOLT-4 leukemia.
Assay [10] deals with NCI-H226 lung.
The test system of assay [11] is NCI/ADR-RES ovarian.
Assay [12] relates to SF-268 CNS.
The test system of assay [13] is SK-MEL-28 melanoma.
In assay [14] the test system is SK-MEL-5 melanoma.
The subject of assay [15] is SK-OV-3 ovarian.
The test system of assay [16] is SNB-75 CNS.
In assay [17] the test system is U251 CNS.
The test system of assay [18] is UACC-257 melanoma.
Assay [19] relates to K-562 leukemia.
The test system of assay [20] is NCI-H460 lung.

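These data come from cells grown in 96-well plates and exposed to compound for 48 hours at five concentrations. The concentration for full growth arrest is given as TGI.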 Where a SMILES comes first, the peptide text is derived from it. The star is where a group is joined. Boc = CC(C)(C)OC(=O)*; OBn = c1ccc(CO*)cc1 Where only a bound is given, the exact number is not on record here.

The TGI is the concentration giving total growth inhibition. On to `CC(=O)OCCOCCN1CCN(c2c(O)c3c(c(O)c2Cl)C(=O)C=CC3=O)CC1`, for which the concentration for total growth inhibition (TGI) was 0.913 µM in assay [1]; 3.56 µM in assay [2]; 2.21 µM in [3]; 0.878 µM in [4]; 0.68 µM in assay [5]; 0.822 µM in assay [6]. The concentration for total growth inhibition (TGI) in [7] is 7.59 µM; in [8], 1.48 µM; in assay [9], 2.51 µM; in [10], 5.89 µM; in [11], 1.21 µM; in [12] it was 3.62 µM. The TGI in assay [13] stood at 2.22 µM; in assay [14], 2.97 µM; in assay [15], 6.06 µM; in [16], 3.71 µM; in [17], 4.1 µM; in assay [18], 2.38 µM.
Take `NC(N)=NS(=O)(=O)c1ccc(NC(=O)c2ccc3nc4ccccc4c(N)c3c2)cc1`: the TGI in assay [1], in assay [3], in assay [4], in [5], in assay [6] and in assay [7] was > 100 µM each time. Also, the TGI in assay [19], in assay [8], in assay [9], in assay [10], in assay [20] and in assay [11] was > 100 µM in each case. For the same compound, the TGI in assay [12], in assay [13], in assay [14], in [15], in [16] and in assay [17] was > 100 µM each time. For the same compound, the concentration for total growth inhibition (TGI) in [18] is > 100 µM.
As for `Cc1nnc([C@@]2(C)CC[C@H]3[C@@H](CCC4=CC(=O)CC[C@@]43C)[C@@H]2CC#N)o1`, the TGI in assay [1], in assay [2], in assay [3], in assay [4], in [5] and in assay [6] was > 100 µM throughout. Further, the TGI in assay [7], in assay [19], in assay [8], in assay [9], in assay [10] and in assay [11] was > 100 µM throughout. Also, the TGI in [12], in assay [14], in assay [15], in assay [16], in assay [17] and in assay [18] was > 100 µM in each case.
With `O=C1C=C2CC[C@H]3[C@@H]4CC[C@H](Oc5c6ccccc6nc6ccccc56)[C@H]4CC[C@@H]3[C@H]2CC1`, the concentration for total growth inhibition (TGI) was > 100 µM in [1]; > 100 µM in assay [3]; > 100 µM in assay [4]; > 100 µM in [5]; 80.3 µM in assay [6]; > 100 µM in [7]. The total growth inhibition concentration (TGI) in assay [19], in assay [8], in assay [10], in assay [20], in assay [11] and in [12] was > 100 µM each time. Also, the total growth inhibition concentration (TGI) is > 100 µM in assay [13]; > 100 µM in [14]; > 100 µM in [15]; 91.8 µM in assay [16]; > 100 µM in assay [17]; > 100 µM in [18].
`CCOP(C)(=O)/C(Cc1ccc(OC)c(OC)c1)=N\O` (stereo not given): the total growth inhibition concentration (TGI) in assay [1], in [2], in assay [3], in [4], in assay [5] and in [6] was > 100 µM throughout. In addition, the total growth inhibition concentration (TGI) in assay [7], in assay [19], in assay [8], in [9], in assay [10] and in assay [20] was > 100 µM each time. The TGI in assay [11], in [13], in assay [14], in [15], in assay [16] and in assay [17] was > 100 µM in each case.
Turning to `C/C(=C1\C(=O)C(c2ccccc2)N(c2ccccc2)C1=O)c1ccc(Cl)cc1` (stereo not given), the total growth inhibition concentration (TGI) in [1] came out at 38.6 µM; in [2] it was 33.1 µM; in assay [3], 49.2 µM; in [4], 48.4 µM; in [5], 32.8 µM; in [6], 13.6 µM. Further, the TGI is 40.9 µM in assay [7]; > 100 µM in assay [19]; 42.3 µM in assay [8]; > 100 µM in assay [9]; 43 µM in assay [10]; > 100 µM in assay [20]. In addition, the TGI in assay [11] was > 100 µM; in assay [12], 47 µM; in assay [13], 31.2 µM; in assay [14], 28.3 µM; in [15], 30.8 µM; in [17], 29.4 µM. In assay [18], this compound came in with a TGI of 30.8 µM.
Regarding `O=C1CCCC[C@H]1C(O)CC1CC(=O)N(c2ccccc2)C(=O)C1` (stereo not given in full), the TGI in [1], in assay [2], in assay [3], in assay [4], in assay [6] and in assay [7] was > 100 µM in each case. Moreover, the TGI in [19], in assay [8], in assay [9], in assay [10], in [20] and in assay [11] was > 100 µM each time. Further, the TGI in [12], in assay [13], in assay [14], in assay [16], in [17] and in assay [18] was > 100 µM each time.
For the compound `CC(C)CC(NC(=O)C(Cc1ccccc1)NC(=O)C(Cc1ccccc1)NC(=O)OC(C)(C)C)C(=O)OCc1ccccc1` (stereo not drawn) (Boc-Phe-Phe-Leu-OBn; configuration not given here), the TGI in [1], in assay [2], in assay [3], in [4], in assay [5] and in [6] was > 100 µM in each case. The concentration for total growth inhibition (TGI) in [7], in assay [19], in assay [8], in [9], in [10] and in assay [11] was > 100 µM throughout. In addition, the TGI in [12], in assay [13], in [14], in [15], in [16] and in [17] was > 100 µM in each case. In addition, the TGI in assay [18] is > 100 µM.
Regarding `Cc1nn(-c2ccccc2)c2nc3ccc(Cl)cc3c(-c3ccccc3)c12`, the concentration for total growth inhibition (TGI) in assay [1], in assay [3], in [5], in assay [6], in [7] and in assay [8] was > 100 µM throughout. For the same compound, the TGI in [9], in assay [10], in assay [20], in assay [11], in assay [12] and in assay [13] was > 100 µM each time. The TGI in assay [14], in [15], in assay [16] and in [17] was > 100 µM throughout.
Turning to `CN(C)/C=C/c1c2c(nc3ccccc13)C(=O)c1ccccc1C2=O`, the TGI in [1] came to 5.51 µM; in assay [2], 9.24 µM; in [3] it was 4.87 µM; in assay [4] it was 6.31 µM; in assay [5], 5.5 µM; in [6], 30 µM. The TGI in assay [7] was 4.21 µM; in [19], > 100 µM; in assay [8], 1.92 µM; in assay [9], 6.32 µM; in assay [10], 5.21 µM; in assay [20], 1.4 µM. Moreover, the concentration for total growth inhibition (TGI) in assay [11] turned out to be 5.6 µM; in [12], 5.26 µM; in [13] it was 0.55 µM; in assay [14], 0.536 µM; in assay [15], 11.7 µM; in [17], 4.66 µM. Further, in assay [18], the TGI came to 1.77 µM.
Regarding `CCOC(=O)c1cn2c(ccc3sc4ccccc4c(=O)c32)n1`, the TGI in assay [1], in assay [2], in assay [3], in [4], in assay [5] and in assay [6] was > 100 µM throughout. Also, the TGI in assay [7], in assay [19], in assay [9], in assay [10], in assay [20] and in [11] was > 100 µM throughout. The TGI in assay [12], in assay [13], in [14], in [16], in assay [17] and in assay [18] was > 100 µM throughout.

Source of the values: PubChem BioAssay (NCI).
